Tests used:
SpCas9 [1] = biological target: T1, SpCas9 (Streptococcus pyogenes serotype M1, UniProt Q99ZW2); test: Strand displacement assay (SDA) / cumulative activity assay (CAA), SpCas9 primary screen; type: biochemical; details: Primary Screen (150 min); for Normalized Z score 1: replicate 1; for Normalized Z score 2: replicate 2
Method: Screening of inhibitors was via a high throughput pipeline, as depicted in FIG. 29. The first screening is via a strand displacement assay (SDA) for detecting nuclease activity (FIG. 27A, 28A). The Cpf1/Cas12 protein/DNA complex has a different structure from Cas9 and requires optimization of the potential fluorophore attachment sites (Yamano, T et al., Cell, 2016). (FIG. 28A). Next screened compounds are evaluated in an eGFP cell assay, and for eGFP dose. Those compounds are further narrowed via a HiBiT assay and finally evaluated in the surveyor assay. SAR evaluations are performed to arrive at lead compounds for further evaluations and variations. General methodology for the assays is as described in at [0253]-[0301] of U.S. Patent Application 62/831,143 filed Apr. 8, 2019, incorporated herein by reference.
The 3′ end of the displacing single-stranded DNA was labeled with a quencher. Following nuclease cleavage of the substrate, the 3′-labeled quenching DNA strand (present in excess) could outcompete the weakly held 3′ strand to anneal to the 5′ strand. The resulting FRET fluorescence quenching provides an optical readout for nuclease activity (FIG. 62A).
Typically, SpCas9: gRNA (1:1.2 ratio) RNP was pre-formed at 1 μM in Cas9 assay buffer (20 mM Tris-HCl, pH=7.5, 100 mM KCl, 5 mM MgCl2) for 5 min at 4° C. before diluting to 10 nM in Cas9 assay buffer (2× final concentration). 25 μL of the Cas9 2× stock was manually dispensed to a black 384-well plate (Corning 3575) using electronic pipette. […] Following this, pre-annealed Alexa-Fluor 647 labeled substrate and quencher were also diluted to 1 nM and 5 nM in Cas9 assay buffer, respectively (2× stock solution). Next, 25 μL of the substrate/quencher solution was added manually to each well of the Cas9-containing 384-well plates using an electronic pipette and was incubated at 37° C. for 2.5 h. Fluorescent signals were read with the microplate reader set to read Alexa-Fluor 647 fluorescence. Assay was performed similarly with SaCas9 and FnCas12a using the respective enzyme, gRNA, substrate, and quencher oligos. […]

SpCas9 [2] = biological target: T1, SpCas9; test: eGFP disruption assay, SpCas9, U2OS.eGFP.PEST cells; type: cell-based; details: for Normalized Z rep1 / Z score Rep1: replicate 1; for SpCas9 eGFP disruption Rep1: replicate 1, raw readout; for Normalized Z rep2 / Z socre Rep2: replicate 2; for SpCas9 eGFP disruption Rep2: replicate 2, raw readout
Excerpt: In some embodiments, the secondary assay may be an EGFP disruption assay. In such assay, a quantitative human cell-based reporter assay that enables rapid quantitation of targeted nuclease activities is used to characterize off-target cleavage of Cas9-based RNA guided endonucleases. In this assay, the activities of nucleases targeted to a single integrated EGFP reporter gene can be quantified by assessing loss of fluorescence signal in human U2OS.EGFP cells caused by inactivating frameshift insertion/deletion (indel) mutations introduced by error prone non-homologous end-joining (NHEJ) repair of nuclease-induced double-stranded breaks (DSBs).
In one protocol, U2OS.EGFP cells harboring a single integrated copy of an EGFP-PEST fusion gene are cultured (see e.g., Reyon et al., Nat Biotech 30, 460-465 (2012), which is herein incorporated by reference in its entirety). For transfections, 200,000 cells are Nucleofected with gRNA expression plasmid and pJDS246 together with 30 ng of a Td-tomato-encoding plasmid using the SE Cell Line 4D-Nucleofector™ X Kit (Lonza) according to the manufacturer's protocol. Cells are analyzed 2 days post-transfection using a BD LSRII flow cytometer. Transfections for optimizing gRNA/Cas9 plasmid concentration are performed in triplicate and all other transfections are performed in duplicate. PCR amplification is used for sequence verification of endogenous human genomic sites. PCR reactions are performed using Phusion Hot Start II high-fidelity DNA polymerase (NEB). Loci are amplified using touchdown PCR (98° C., 10 s; 72-62° C., −1° C./cycle, 15s; 72° C., 30 s] 10 cycles, [98° C., 10s; 62° C., 15s; 72° C., 30 s] 25 cycles). Alternatively, PCR for other targets is performed with 35 cycles at a constant annealing temperature of 68° C. or 72° C., and 3% DMSO or IM betaine, if necessary. PCR products are analyzed on a QIAXCEL capillary electrophoresis system to verify both size and purity. Validated products are treated with ExoSap-IT (Affymetrix) and sequenced by the Sanger method (MGH DNA Sequencing Core) to verify each target site.
Primary and secondary screening. The primary screen assayed a selection of unique chemical scaffolds derived from commercially available compounds and known bioactive molecular libraries (Table 7). Auto-fluorescent compounds were removed by a counter screen. Overall, the CAA was used to assay 122,409 small molecules with over 2,500 unique chemical scaffolds (FIG. 64F, Table 7). Of these compounds, 547 were selected as hits (Z score >3 in both replicates) for testing in orthogonal cell-based secondary assays. Hits were tested in duplicate in an eGFP disruption assay, wherein U2OS.eGFP.PEST cells^33 transfected with SpCas9 plasmid and eGFP-targeting gRNA plasmid were incubated with 20 μM of the compounds. In this assay, any compound that inhibited SpCas9 would rescue the loss of eGFP fluorescence. Here, toxic and auto-fluorescent compounds with a high GFP signal in cells were removed as false positives. […] Next, Applicants tested the 15 compounds in a luminescence-based gain-of-signal HiBiT knock-in assay, which involves SpCas9-mediated homology-directed tagging of GAPDH with a short peptide that luminesces upon complementation with a subunit derived from nanoluciferase.^34 Complementarily, the eGFP-disruption assay is fluorescence-based and involves error-prone DNA repair. As a counter-screen to remove false positives caused by cell death (viability <80%), the cell viability was measured after incubation.
For SAR studies and dose-response studies, 300,000 U2OS.eGFP.PEST cells were nucleofected with 300 ng of SpCas9 plasmid (Addgene #43861) and 30 ng of eGFP-targeting gRNA plasmid (Addgene #47511)^33 using SE Cell Line 4D-Nucleofector X Kit (Lonza) following the pulse program of DN-100. For RNP-based genome editing, 10 pmol of SpCas9 (GenScript #Z03385) and 12 pmol of gRNA were mixed and incubated for 5 min. […]

[3] = Cas9 = lower control, Ctrl = upper control
[4] = normalized, lower control about 0, upper control about 1

T1 sequence (Q99ZW2 whole entry): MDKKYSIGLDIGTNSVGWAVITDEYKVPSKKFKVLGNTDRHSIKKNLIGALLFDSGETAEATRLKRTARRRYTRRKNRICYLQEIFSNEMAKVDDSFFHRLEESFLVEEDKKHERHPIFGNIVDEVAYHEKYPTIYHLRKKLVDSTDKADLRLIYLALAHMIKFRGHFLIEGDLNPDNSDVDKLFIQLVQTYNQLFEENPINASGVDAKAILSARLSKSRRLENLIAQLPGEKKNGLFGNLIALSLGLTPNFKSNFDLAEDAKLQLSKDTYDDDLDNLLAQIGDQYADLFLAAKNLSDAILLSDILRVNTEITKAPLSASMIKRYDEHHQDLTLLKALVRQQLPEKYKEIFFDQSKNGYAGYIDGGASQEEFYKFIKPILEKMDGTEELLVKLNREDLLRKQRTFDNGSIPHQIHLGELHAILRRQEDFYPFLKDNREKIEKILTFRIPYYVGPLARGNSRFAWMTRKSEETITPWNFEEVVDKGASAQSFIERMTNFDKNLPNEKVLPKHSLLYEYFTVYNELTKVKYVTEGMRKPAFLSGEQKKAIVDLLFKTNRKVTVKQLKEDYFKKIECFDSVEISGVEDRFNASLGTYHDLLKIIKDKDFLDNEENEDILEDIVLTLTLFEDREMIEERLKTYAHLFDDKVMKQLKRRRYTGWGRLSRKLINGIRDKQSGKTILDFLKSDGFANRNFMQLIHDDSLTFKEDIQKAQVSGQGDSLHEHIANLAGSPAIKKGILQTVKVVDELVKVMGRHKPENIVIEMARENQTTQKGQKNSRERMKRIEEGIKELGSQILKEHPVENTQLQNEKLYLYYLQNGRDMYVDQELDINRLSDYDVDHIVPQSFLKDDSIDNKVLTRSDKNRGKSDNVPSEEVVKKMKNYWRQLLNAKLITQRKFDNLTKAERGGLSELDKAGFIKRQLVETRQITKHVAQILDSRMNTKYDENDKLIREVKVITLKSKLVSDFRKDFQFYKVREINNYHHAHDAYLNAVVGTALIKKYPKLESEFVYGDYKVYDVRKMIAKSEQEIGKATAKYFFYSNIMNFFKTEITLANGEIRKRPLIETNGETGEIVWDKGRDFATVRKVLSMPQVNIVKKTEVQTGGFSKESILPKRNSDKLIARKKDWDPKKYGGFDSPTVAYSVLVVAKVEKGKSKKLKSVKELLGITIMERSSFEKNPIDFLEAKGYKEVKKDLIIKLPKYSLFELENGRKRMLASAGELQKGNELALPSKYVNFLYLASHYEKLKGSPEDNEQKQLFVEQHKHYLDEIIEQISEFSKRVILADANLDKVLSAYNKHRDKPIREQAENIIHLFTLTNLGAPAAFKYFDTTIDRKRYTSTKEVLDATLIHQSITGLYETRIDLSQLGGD

Structure (SMILES) | Average Normalized Z score (SpCas9 [1]) | avg z score primary (SpCas9 [1]) | Normalized Z score 1 (SpCas9 [1]) | Normalized Z score 2 (SpCas9 [1]) | Normalized Z rep1 (SpCas9 [2]) | Z score Rep1 (SpCas9 [2]) | SpCas9 eGFP disruption Rep1 (SpCas9 [2]) | Normalized Z rep2 (SpCas9 [2]) | Z socre Rep2 (SpCas9 [2]) | SpCas9 eGFP disruption Rep2 (SpCas9 [2]) | SpCas9 eGFP disruption Rep1 (SpCas9 [2]; [3]) | Normalized Z rep1 (SpCas9 [2]; [4]) | SpCas9 eGFP disruption Rep2 (SpCas9 [2]; [3]) | Normalized Z rep2 (SpCas9 [2]; [4]) | Average Normalized Z score (SpCas9 [1]; average of replicates)
CCc1cccc(-n2nnnc2N2CCN(C(=O)Nc3ccc(C)cc3Cl)CC2)c1 [Compound L378-0331] | 0.19 | 5.44 | 0.16 | 0.21 | −0.41 | −2.70 | 68.157 | 0.06 | 0.61 | 77.513 |  |  |  |  | 
CC(C)CNC(=O)c1ccc(Oc2ccnc(-c3ccc(F)cc3)n2)cc1 [Compound L662-0597] | 0.37 | 7.15 | 0.36 | 0.37 | 0.00 | 0.02 | 76.108 | −0.15 | −1.39 | 73.535 |  |  |  |  | 
O=C(NCC1CCCO1)c1ccc(Oc2ccnc(-c3ccc(F)cc3)n2)cc1 (stereo not shown) [Compound L662-0604] | 0.35 | 6.87 | 0.33 | 0.38 |  | 0.38 |  |  | 0.09 |  | 77.166 | 0.06 | 76.48 | 0.01 | 
O=C(Nc1ccc(F)c(Cl)c1)c1ccc(Oc2ccnc(-c3ccc(F)cc3)n2)cc1 [Compound L662-0654] | 0.30 | 5.79 | 0.30 | 0.29 | −0.13 | −0.84 | 73.611 | −0.14 | −1.37 | 73.579 |  |  |  |  | 
COc1ccc(OC)c(CNC(=O)c2ccc(Oc3ccnc(-c4cccc(F)c4)n3)cc2)c1 [Compound L662-0973] | 0.29 | 5.63 | 0.35 | 0.24 |  | 0.85 |  |  | 1.27 |  | 78.528 | 0.13 | 78.814 | 0.13 | 
O=C1NC(=S)C(=C2CCCC2)S1 [Compound T5441809] |  | 22.96 | 0.27 | 0.24 |  |  |  |  |  |  |  |  |  |  | 0.26
O=C(O)C(S)=C/C=C\c1ccccc1 [Compound T5441826] |  | 4.20 | 0.03 | 0.06 |  |  |  |  |  |  |  |  |  |  | 0.05
